Among the test systems are SK-MEL-28 melanoma; NCI-H23 lung; HS 578T breast; COLO 205 colon; UO-31 renal; U251 CNS; SW-620 colon; MOLT-4 leukemia; HOP-62 NSCLC; SR leukemia; A549 NSCLC; OVCAR-4 ovarian.
Holding throughout (assay): NCI tumour cell line growth inhibition, 48 h

SMILES strings stand for the structures.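 Method: 48-hour compound exposure of cells in 96-well plates, five concentrations, linear interpolation of endpoints. TGI is the concentration that stops growth completely.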

Turning to `COc1ccc(C(CC2(c3ccc(OC)cc3)SCCCS2)NC(C)=O)cc1` (configuration not stated), the TGI in the assay with SK-MEL-28 melanoma is greater than 100 µM; in the assay on NCI-H23 lung, greater than 100 µM; in the assay on HS 578T breast, greater than 100 µM; in the assay with COLO 205 colon, 56.7 µM; with UO-31 renal, greater than 100 µM; in the assay on U251 CNS it was greater than 100 µM. The TGI is greater than 100 µM in the assay on SW-620 colon; 84.3 µM in the assay with MOLT-4 leukemia; greater than 100 µM in the assay on HOP-62 NSCLC; greater than 100 µM in the assay on SR leukemia; greater than 100 µM with A549 NSCLC.

Take `CC(C)[N+]([O-])(CCCNc1c2ccccc2nc2cccc([N+](=O)[O-])c12)C(C)C`: the TGI in the assay with SK-MEL-28 melanoma was 0.175 µM; in the assay on NCI-H23 lung, 0.168 µM; with HS 578T breast it was 0.402 µM; with COLO 205 colon, 0.0577 µM; with UO-31 renal, 1.35 µM; in the assay on U251 CNS it was 1.19 µM. For the same compound, the TGI in the assay on SW-620 colon amounted to 4.9 µM; with HOP-62 NSCLC, 1.77 µM; in the assay on OVCAR-4 ovarian it was 0.433 µM; in the assay on SR leukemia, 1.15 µM; in the assay on A549 NSCLC, 2.53 µM.

Turning to `CC(=O)Nc1ccc2c3c(cc(O)c2c1)N(C(=O)CCCC(=O)N1CC(CCl)c2c1cc(O)c1cc(NC(C)=O)ccc21)CC3CCl` (configuration not stated), the TGI with SK-MEL-28 melanoma was greater than 100 µM; in the assay on NCI-H23 lung it was 0.0325 µM; with COLO 205 colon, 0.0215 µM; with UO-31 renal, 0.0604 µM; in the assay with U251 CNS, less than 0.0139 µM; with SW-620 colon, greater than 100 µM. Further, the TGI with HOP-62 NSCLC is 0.0596 µM; with OVCAR-4 ovarian, 0.64 µM; in the assay on SR leukemia, less than 0.01 µM.

In the case of `Cc1nc2sccn2c1C(=O)NN`, the TGI in the assay on SK-MEL-28 melanoma, with NCI-H23 lung, in the assay on COLO 205 colon, in the assay on U251 CNS, in the assay with SW-620 colon and in the assay with MOLT-4 leukemia was greater than 100 µM throughout. Besides, the TGI in the assay on HOP-62 NSCLC, with SR leukemia and with A549 NSCLC was greater than 100 µM in each case.

`CCOC1OC(COC(=O)C(C)(C)C)C(O)CC1n1cc(C)c(=O)[nH]c1=O` (configuration not stated): the TGI in the assay on SK-MEL-28 melanoma, in the assay on NCI-H23 lung, with HS 578T breast, in the assay on COLO 205 colon, in the assay with UO-31 renal and in the assay on U251 CNS was greater than 100 µM in each case. Also, the TGI in the assay with SW-620 colon, in the assay on OVCAR-4 ovarian, in the assay with SR leukemia and with A549 NSCLC was greater than 100 µM each time.

`OC12c3ccccc3C1CCCCC2N1CCCC1` (configuration not stated): the TGI in the assay with SK-MEL-28 melanoma, in the assay with NCI-H23 lung, with COLO 205 colon, with UO-31 renal, with U251 CNS and in the assay with SW-620 colon was greater than 100 µM each time. Further, the TGI in the assay with MOLT-4 leukemia, in the assay with HOP-62 NSCLC, in the assay on OVCAR-4 ovarian, with SR leukemia and with A549 NSCLC was greater than 100 µM in each case.

As to `C=CC(=O)Nc1ccc(NC(=O)C=C)c2c1C(=O)c1ccccc1C2=O`, the TGI in the assay on SK-MEL-28 melanoma, in the assay on NCI-H23 lung, in the assay on HS 578T breast, in the assay with COLO 205 colon, in the assay on UO-31 renal and in the assay with U251 CNS was greater than 100 µM each time. The TGI is greater than 100 µM in the assay on SW-620 colon; 96.4 µM in the assay with MOLT-4 leukemia; greater than 100 µM in the assay on HOP-62 NSCLC; greater than 100 µM in the assay with SR leukemia; greater than 100 µM with A549 NSCLC.

With `COc1ccc(CNc2cnc3cc(N)ccc3n2)cc1`, the TGI with SK-MEL-28 melanoma, in the assay on NCI-H23 lung, with COLO 205 colon, in the assay with UO-31 renal, with U251 CNS and in the assay with SW-620 colon was greater than 100 µM throughout. The TGI in the assay with MOLT-4 leukemia, in the assay on HOP-62 NSCLC, in the assay on OVCAR-4 ovarian, in the assay with SR leukemia and in the assay with A549 NSCLC was greater than 100 µM each time.

Turning to `C=C(C)C12CC3CC(/C(=N/O)C(C1)/C3=N\O)[C@@]2(C)O` (some centres not stated), the TGI in the assay on SK-MEL-28 melanoma, with NCI-H23 lung, with COLO 205 colon, with UO-31 renal, in the assay with U251 CNS and in the assay on SW-620 colon was greater than 100 µM each time. Also, the TGI in the assay with MOLT-4 leukemia, in the assay on HOP-62 NSCLC, with SR leukemia and in the assay with A549 NSCLC was greater than 100 µM in each case.

In the case of `O=C1/C(=C\c2ccc(Cl)cc2)N=C(c2ccccc2)N1n1c(=O)cn[nH]c1=S`, the TGI was greater than 100 µM in the assay with SK-MEL-28 melanoma; 43.6 µM in the assay with NCI-H23 lung; greater than 100 µM in the assay on COLO 205 colon; greater than 100 µM with UO-31 renal; 37.7 µM with U251 CNS; 44.4 µM with SW-620 colon. The TGI was 53.3 µM in the assay on MOLT-4 leukemia; greater than 100 µM with HOP-62 NSCLC; 69 µM in the assay with OVCAR-4 ovarian; 72.6 µM with SR leukemia; greater than 100 µM with A549 NSCLC.

Consider `CSC1=N/C(=C\c2ccc(Cl)cc2)C(=O)N1CN1CCCCC1`, for which the TGI in the assay with SK-MEL-28 melanoma, in the assay on NCI-H23 lung, with HS 578T breast, in the assay on COLO 205 colon, in the assay on UO-31 renal and with U251 CNS was greater than 100 µM each time. Also, the TGI with SW-620 colon, in the assay with MOLT-4 leukemia, with HOP-62 NSCLC, with SR leukemia and in the assay on A549 NSCLC was greater than 100 µM throughout.

In the case of `COC(=O)c1c([N+](=O)[O-])ncn1[C@H]1OC[C@@H](OC(C)=O)[C@@H](OC(C)=O)[C@@H]1OC(C)=O`, the TGI in the assay on SK-MEL-28 melanoma, with NCI-H23 lung, in the assay with COLO 205 colon, in the assay on UO-31 renal, in the assay on U251 CNS and in the assay on SW-620 colon was greater than 100 µM each time. Besides, the TGI in the assay with MOLT-4 leukemia, in the assay on HOP-62 NSCLC, in the assay with OVCAR-4 ovarian, in the assay with SR leukemia and with A549 NSCLC was greater than 100 µM each time.

With `COc1ccc(C(c2ccccc2)(c2ccc(OC)cc2)N2C(=O)NC3C(CCCCC(=O)NCCCCCCOP(OCCC#N)N(C(C)C)C(C)C)SCC32)cc1` (configuration not stated), the TGI in the assay with SK-MEL-28 melanoma amounted to 29 µM; in the assay with NCI-H23 lung it was 32.3 µM; in the assay with COLO 205 colon it was 40.7 µM; in the assay with UO-31 renal, 27.5 µM; in the assay on U251 CNS, 28.5 µM; in the assay with SW-620 colon, 43.8 µM. Further, the TGI with MOLT-4 leukemia worked out at 28.5 µM; in the assay with HOP-62 NSCLC, 36.6 µM; in the assay on OVCAR-4 ovarian, 40 µM; with SR leukemia, 27.2 µM; with A549 NSCLC, 41.8 µM.

(Values after PubChem BioAssay (NCI).)
